In US9012492B2, “Apocynin-lipoic acid conjugates and uses thereof” (priority 2011, dated 2015):

What was measured:
[1] = system: markers of oxidative stress (SOD1, SOD2, GSH, GSSG, H2O2, HNE-His adducts, DNA fragmentation); assay: Markers of oxidative stress in ischemic cortex following I/R; assay type: in vivo, rat
Experimental: To examine the effect of the compound of Formula (Ia) on various markers of oxidative stress throughout the 5.5 h of reperfusion, injections of the optimal dose of the compound of Formula (Ia) (0.1 mg/kg; 1 ml/kg iv; n=5 per group at each time point) or vehicle (25% EtOH; 1 ml/kg iv; n=5 per group at each time point) were made 30 min prior to the onset of MCAO. The sutures were left in place for 30 min. Brains were removed, and cortical tissue was collected at the end of the 30 min of occlusion (no reperfusion), or following 30 min, 1, 2, 4, or 5.5 h of reperfusion. At the end of each time point, animals were perfused transcardially with 200 ml of 100 mM PBS (pH 7.4), and the brains were removed. The ipsilateral cerebral cortex was isolated, and an 8-mm diameter biopsy punch was used to obtain tissue from the ischemic core. The tissue was weighed and homogenized (40% wt/vol) in ice-cold PBS. Aliquots of whole homogenate were frozen at −80° C. immediately for measurements of hydrogen peroxide (H2O2). The remaining sample was diluted 1:2 with ice-cold PBS and centrifuged at 12,000 g for 15 min at 4° C. Aliquots of the supernatant were stored at −80° C. until assayed for protein levels, superoxide dismutase (SOD1 and SOD2) activity, 4-hydroxynonenal-histodine (HNE-His) adducts (OxiSelect Kits, Cell Biolabs, San Diego, Calif.), reduced glutathione (GSH), oxidized glutathione (GSSG; Cayman Chemical, Ann Arbor Mich.), and cytoplasmic enrichment of DNA fragments (apoptosis) (Roche Diagnostics, Montreal, QC, Canada) using selective assay kits according to manufacturer's specifications.

[2] = system: dog liver microsomes (DLM); assay: Metabolic stability using dog liver microsomes; assay type: in vitro ADME
Description: Table 9 summarizes the experimental conditions used in the studies of the metabolic stability of the compound of Formula (Ia) using dog liver microsomes and human liver microsomes.

N27 neuronal cells = assay: DNA fragmentation ELISA after hydrogen peroxide exposure of N27 neuronal cells; assay type: cell-based; conditions: pretreatment 100 μM
Experimental: Specifically, the effects of (Ia) on oxidative stress in N27 neuronal cells, a dopaminergic cell line were studied. […]
The cells were then lysed, and DNA fragmentation was determined by ELISA assay.

[3] = Stability in sodium phosphate buffer (HPLC); assay type: physicochemical; conditions: for stability in sodium phosphate buffer: 50 mM, HPLC; for half-life: buffer without microsomes and without NADPH; for half-life / % Metabolism in 30 minutes / CLintr (mL/min/g liver): matrix buffer (no microsomes, no NADPH)
Experimental: The stability of the compound of Formula (Ia) in a sodium phosphate buffer (50 mM, pH 7.4) was evaluated using HPLC. […] Area counts of apocynin and lipoid acid were found in 0 minute samples and were generally constant until the last time point measured (see: FIGS. 11-12 and Tables 5-6).

COc1cc(C(C)=O)ccc1OC(=O)CCCCC1CCSS1 (centres unmarked) [compound of Formula (Ia)]
mitochondrial SOD2 activity levels vs vehicle ([1]; 0.1 mg/kg iv 30 min prior to MCAO, 4-h time point): significantly higher
oxidized form of GSH (GSSG) vs vehicle ([1]; 0.1 mg/kg iv 30 min prior to MCAO, after 5.5 h of reperfusion): significantly greater
total amount of GSH (oxidized and reduced forms) vs vehicle ([1]; 0.1 mg/kg iv 30 min prior to MCAO, any time point): No significant differences
cytoplasmic SOD1 activity levels vs vehicle ([1]; 0.1 mg/kg iv 30 min prior to MCAO, any time point during 5.5 h reperfusion): no significant differences
level of hydrogen peroxide vs vehicle ([1]; 0.1 mg/kg iv 30 min prior to MCAO, any time point over 5.5 h reperfusion): not significantly greater
DNA fragmentation (apoptotic cell death) ([1]; 0.1 mg/kg iv 30 min prior to MCAO, each time point): No significant changes
HNE-His adduct levels vs vehicle ([1]; 0.1 mg/kg iv 30 min prior to occlusion, following 2 h of reperfusion): significantly attenuated
% Metabolism in 30 minutes ([2]; DLM control (without NADPH)): 0%
CLintr (mL/min/g liver) ([2]; DLM control (without NADPH)): >67 mL/min/g liver
% Metabolism in 30 minutes ([2]; DLM reaction (with NADPH)): 0%
CLintr (mL/min/g liver) ([2]; DLM reaction (with NADPH)): >67 mL/min/g liver
DNA fragmentation induced by hydrogen peroxide reduced by (N27 neuronal cells): 73%
DNA cell fragmentation (N27 neuronal cells; then hydrogen peroxide (1 mM), n = 4): 138 ± 20 percentage of control
% Remaining ([3]; 0.5 μM in sodium phosphate buffer (50 mM, pH 7.4), 0 min, Set-1): 100%
% Remaining ([3]; 0.5 μM in sodium phosphate buffer (50 mM, pH 7.4), 3 min, Set-1): 64%
% Remaining ([3]; 0.5 μM in sodium phosphate buffer (50 mM, pH 7.4), 6 min, Set-1): 50%
% Remaining ([3]; 0.5 μM in sodium phosphate buffer (50 mM, pH 7.4), 9 min, Set-1): 55%
% Remaining ([3]; 0.5 μM in sodium phosphate buffer (50 mM, pH 7.4), 12 min, Set-1): 50%
% Remaining ([3]; 0.5 μM in sodium phosphate buffer (50 mM, pH 7.4), 15 min, Set-1): 50%
% Remaining ([3]; 0.5 μM in sodium phosphate buffer (50 mM, pH 7.4), 18 min, Set-1): 50%
% Remaining ([3]; 0.5 μM in sodium phosphate buffer (50 mM, pH 7.4), 21 min, Set-1): 73%
% Remaining ([3]; 0.5 μM in sodium phosphate buffer (50 mM, pH 7.4), 27 min, Set-1): 64%
% Remaining ([3]; 0.5 μM in sodium phosphate buffer (50 mM, pH 7.4), 30 min, Set-1): 77%
stability in sodium phosphate buffer ([3]; 0.5 μM, pH 7.4): stable
% Remaining ([3]; 10 μM in sodium phosphate buffer (50 mM, pH 7.4), 0 min, Set-1): 100%
% Remaining ([3]; 10 μM in sodium phosphate buffer (50 mM, pH 7.4), 3 min, Set-1): 83%
% Remaining ([3]; 10 μM in sodium phosphate buffer (50 mM, pH 7.4), 6 min, Set-1): 73%
% Remaining ([3]; 10 μM in sodium phosphate buffer (50 mM, pH 7.4), 9 min, Set-1): 83%
% Remaining ([3]; 10 μM in sodium phosphate buffer (50 mM, pH 7.4), 12 min, Set-1): 73%
% Remaining ([3]; 10 μM in sodium phosphate buffer (50 mM, pH 7.4), 15 min, Set-1): 74%
% Remaining ([3]; 10 μM in sodium phosphate buffer (50 mM, pH 7.4), 18 min, Set-1): 71%
% Remaining ([3]; 10 μM in sodium phosphate buffer (50 mM, pH 7.4), 21 min, Set-1): 76%
% Remaining ([3]; 10 μM in sodium phosphate buffer (50 mM, pH 7.4), 27 min, Set-1): 57%
% Remaining ([3]; 10 μM in sodium phosphate buffer (50 mM, pH 7.4), 30 min, Set-1): 79%
stability in sodium phosphate buffer ([3]; 10 μM, pH 7.4): stable
half-life ([3]; DLM/HLM study): 23 min
half-life ([3]; rat liver microsome study): > 30 min
% Remaining ([3]; buffer, 0 h, 0.5 μM, pH 7.4): 100%
Apocynin area counts, % Remaining ([3]; buffer, 0 h, 0.5 μM, pH 7.4): 100%
Lipoic acid area counts, % Remaining ([3]; buffer, 0 h, 0.5 μM, pH 7.4): 100%
% Remaining ([3]; buffer, 0 h, 10 μM, pH 7.4): 100%
Apocynin area counts, % Remaining ([3]; buffer, 0 h, 10 μM, pH 7.4): 100%
Lipoic acid area counts, % Remaining ([3]; buffer, 0 h, 10 μM, pH 7.4): 100%
% Remaining ([3]; buffer, 0.05 h, 0.5 μM, pH 7.4): 71%
Apocynin area counts, % Remaining ([3]; buffer, 0.05 h, 0.5 μM, pH 7.4): 78%
Lipoic acid area counts, % Remaining ([3]; buffer, 0.05 h, 0.5 μM, pH 7.4): 103%
% Remaining ([3]; buffer, 0.05 h, 10 μM, pH 7.4): 92%
Apocynin area counts, % Remaining ([3]; buffer, 0.05 h, 10 μM, pH 7.4): 96%
Lipoic acid area counts, % Remaining ([3]; buffer, 0.05 h, 10 μM, pH 7.4): 100%
% Remaining ([3]; buffer, 0.1 h, 0.5 μM, pH 7.4): 59%
Apocynin area counts, % Remaining ([3]; buffer, 0.1 h, 0.5 μM, pH 7.4): 68%
Lipoic acid area counts, % Remaining ([3]; buffer, 0.1 h, 0.5 μM, pH 7.4): 99%
% Remaining ([3]; buffer, 0.1 h, 10 μM, pH 7.4): 80%
Apocynin area counts, % Remaining ([3]; buffer, 0.1 h, 10 μM, pH 7.4): 91%
Lipoic acid area counts, % Remaining ([3]; buffer, 0.1 h, 10 μM, pH 7.4): 105%
% Remaining ([3]; buffer, 0.15 h, 0.5 μM, pH 7.4): 47%
Apocynin area counts, % Remaining ([3]; buffer, 0.15 h, 0.5 μM, pH 7.4): 65%
Lipoic acid area counts, % Remaining ([3]; buffer, 0.15 h, 0.5 μM, pH 7.4): 91%
% Remaining ([3]; buffer, 0.15 h, 10 μM, pH 7.4): 87%
Apocynin area counts, % Remaining ([3]; buffer, 0.15 h, 10 μM, pH 7.4): 94%
Lipoic acid area counts, % Remaining ([3]; buffer, 0.15 h, 10 μM, pH 7.4): 113%
% Remaining ([3]; buffer, 0.2 h, 0.5 μM, pH 7.4): 53%
Apocynin area counts, % Remaining ([3]; buffer, 0.2 h, 0.5 μM, pH 7.4): 71%
Lipoic acid area counts, % Remaining ([3]; buffer, 0.2 h, 0.5 μM, pH 7.4): 89%
% Remaining ([3]; buffer, 0.2 h, 10 μM, pH 7.4): 76%
Apocynin area counts, % Remaining ([3]; buffer, 0.2 h, 10 μM, pH 7.4): 95%
Lipoic acid area counts, % Remaining ([3]; buffer, 0.2 h, 10 μM, pH 7.4): 118%
% Remaining ([3]; buffer, 0.25 h, 0.5 μM, pH 7.4): 65%
Apocynin area counts, % Remaining ([3]; buffer, 0.25 h, 0.5 μM, pH 7.4): 68%
Lipoic acid area counts, % Remaining ([3]; buffer, 0.25 h, 0.5 μM, pH 7.4): 106%
% Remaining ([3]; buffer, 0.25 h, 10 μM, pH 7.4): 72%
Apocynin area counts, % Remaining ([3]; buffer, 0.25 h, 10 μM, pH 7.4): 86%
Lipoic acid area counts, % Remaining ([3]; buffer, 0.25 h, 10 μM, pH 7.4): 114%
% Remaining ([3]; buffer, 0.3 h, 0.5 μM, pH 7.4): 59%
Apocynin area counts, % Remaining ([3]; buffer, 0.3 h, 0.5 μM, pH 7.4): 70%
Lipoic acid area counts, % Remaining ([3]; buffer, 0.3 h, 0.5 μM, pH 7.4): 96%
% Remaining ([3]; buffer, 0.3 h, 10 μM, pH 7.4): 71%
Apocynin area counts, % Remaining ([3]; buffer, 0.3 h, 10 μM, pH 7.4): 80%
Lipoic acid area counts, % Remaining ([3]; buffer, 0.3 h, 10 μM, pH 7.4): 121%
% Remaining ([3]; buffer, 0.35 h, 0.5 μM, pH 7.4): 76%
Apocynin area counts, % Remaining ([3]; buffer, 0.35 h, 0.5 μM, pH 7.4): 82%
Lipoic acid area counts, % Remaining ([3]; buffer, 0.35 h, 0.5 μM, pH 7.4): 117%
% Remaining ([3]; buffer, 0.35 h, 10 μM, pH 7.4): 69%
Apocynin area counts, % Remaining ([3]; buffer, 0.35 h, 10 μM, pH 7.4): 82%
Lipoic acid area counts, % Remaining ([3]; buffer, 0.35 h, 10 μM, pH 7.4): 127%
% Remaining ([3]; buffer, 0.45 h, 0.5 μM, pH 7.4): 71%
Apocynin area counts, % Remaining ([3]; buffer, 0.45 h, 0.5 μM, pH 7.4): 79%
Lipoic acid area counts, % Remaining ([3]; buffer, 0.45 h, 0.5 μM, pH 7.4): 119%
% Remaining ([3]; buffer, 0.45 h, 10 μM, pH 7.4): 64%
Apocynin area counts, % Remaining ([3]; buffer, 0.45 h, 10 μM, pH 7.4): 80%
Lipoic acid area counts, % Remaining ([3]; buffer, 0.45 h, 10 μM, pH 7.4): 134%
% Remaining ([3]; buffer, 0.5 h, 0.5 μM, pH 7.4): 94%
Apocynin area counts, % Remaining ([3]; buffer, 0.5 h, 0.5 μM, pH 7.4): 85%
Lipoic acid area counts, % Remaining ([3]; buffer, 0.5 h, 0.5 μM, pH 7.4): 151%
% Remaining ([3]; buffer, 0.5 h, 10 μM, pH 7.4): 71%
Apocynin area counts, % Remaining ([3]; buffer, 0.5 h, 10 μM, pH 7.4): 78%
Lipoic acid area counts, % Remaining ([3]; buffer, 0.5 h, 10 μM, pH 7.4): 141%
% Metabolism in 30 minutes ([3]; DLM/HLM study): 34%
CLintr (mL/min/g liver) ([3]; DLM/HLM study): 3.2 mL/min/g liver
% Metabolism in 30 minutes ([3]; rat liver microsome study): 21%
CLintr (mL/min/g liver) ([3]; rat liver microsome study): 2.3 mL/min/g liver
